Counter-ions that a name gives are not always drawn.
Tests used:
[1] = target: T1, adenosine A2a receptor (Human) (Homo sapiens, UniProt P29274); experiment: c-AMP generating action in cell expressing adenosine A2a receptor; format: cell-based; details: HEK293 cell expressing human A2a; 100% = c-AMP caused by 1 μM CGS-21680; read-out: A2a Agonistic Action (EC50)
T1 construct: host or cells: HEK293
Description: (1) c-AMP Generating Action in Cell Expressing Adenosine A2a Receptor
The test was carried out as mentioned below with reference to the method disclosed in the reference (Klotz k. N. et al., Naunyn-Schmiedeberg's Arch. Pharmacol., (1998) 357, 1-9; Shryock J. C. et al., Molecular Pharmacology, (1998) 53, 886-893).
As to the cell, HEK293 cell expressing adenosine A2a receptor (Human) (PerkinElmer Life Sciences, Code No. RBHA2AC) was used.
As to the culture medium, Dulbecco's modified Eagles medium (DMEM) including 10% FBS (Fetal bovine serum) and 1 mM of sodium pyruvate was used.
The cell was placed on 96 well plate (1×10^5/well), and cultured overnight. After removing off the supernatant, to each well, 0.1 ml of DMEM (without FBS) containing 20 mM HEPES, 0.1 mM of IBMX (3-isobutyl-1-methylxanthine) and 2 unit/mL adenosine deaminase was added, and they were incubated at 37° C. for 30 minutes. To each well, 0.1 ml of the culture medium including the DMSO solution of the test compound in an appropriate concentration was added and they were incubated for additional 30 minutes. After removing off the supernatant, the cytolytic solution was added to quench the reaction. The amount of c-AMP in each well was measured by using the c-AMP enzyme immunoassay (EIA) system (Amersham Biosciences, Code No. RPN225).
The same assay was repeated using CGS-21680 (2-p-carboxyethyl)phenethylamino-5′-N-ethylcarboxamidoadenosine hydrochloride, (Sigma, code C141) as reference compound. The amount of resultant c-AMP in the medium, caused by 1 μM of reference compound, was defined to be 100%. A concentration of assayed compound in the medium, producing 50% c-AMP amounts, was calculated to be EC50 value.

[2] = system: Intraocular Pressure in Rabbit; experiment: Measuring test for intraocular pressure in rabbit; format: in vivo, Female New Zealand white rabbits; details: mean±standard error
Description: (3) Measuring Test for Intraocular Pressure in Rabbit
The test compounds were dissolved in 10 mM of phosphate buffer (pH 7.5) (hereinafter, referred to as “vehicle of ophthalmic preparation”), and they were instilled in a given concentration. In addition, the compounds insoluble in that concentration was used as a suspension. Female New Zealand white rabbits (KITAYAMA LABES Co., Ltd.) whose weights were 2.0-4.0 kg were used.
The measurement of the intraocular pressure was carried out using Pneumatonometer (Model 30 Classic, Mentor company) without anesthesia. In addition, before the measurement of the intraocular pressure, the surface anesthesia with 0.4% oxybuprocaine hydrochloride (“Benoxil” 0.4% ophthalmic solution, Santen Pharmaceutical Co., Ltd.) was carried out.
The animals whose intraocular pressure was stable before instillation were selected, and these animals were divided to every 4 animal in each one group, 50 μL of eye drops including each the test compound was administered to one-sided eye and vehicle was administered to contralateral eye as the control eye. The measurement of intraocular pressure was carried out before instillation and after 0.5, 1, 2, 3, 4 and 6 hours from instillation. The effect on the intraocular pressure was shown as the difference from pre-instillation (ΔIOP, mmHg, mean±standard error). The following Tables 14 and 15 show the results of Control Compounds A and B used as 1% suspensions which are the same as in the pharmacological test (1).
The animals were pretreated as mentioned above, and among them animals whose intraocular pressure was stable before instillation were selected, and these animals were divided to every 5 to 8 animal in each one group. Every two group was used for each of the test compounds. The test compound was administered unilaterally to the eye of the test group rabbit and the intraocular pressure was measured. The vehicle was administered unilaterally to the eye of the control group rabbit and the intraocular pressure was measured. As mentioned above, the measurement of intraocular pressure was carried out before instillation and after 0.5, 1, 2, 3, 4 and 6 hours from instillation, and the effect on the intraocular pressure was shown as the difference from pre-instillation (ΔIOP, mmHg, mean±standard error).

[3] = 0.03% ophthalmic solution, rabbit, instillation, 0.5 hr after instillation, difference from pre-instillation
[4] = 0.03% ophthalmic solution, rabbit, instillation, 1 hr after instillation, difference from pre-instillation
[5] = 0.03% ophthalmic solution, rabbit, instillation, 2 hr after instillation, difference from pre-instillation
[6] = 0.03% ophthalmic solution, rabbit, instillation, 3 hr after instillation, difference from pre-instillation
[7] = 0.03% ophthalmic solution, rabbit, instillation, 4 hr after instillation, difference from pre-instillation
[8] = 0.03% ophthalmic solution, rabbit, instillation, 6 hr after instillation, difference from pre-instillation

T1 sequence (P29274 whole entry): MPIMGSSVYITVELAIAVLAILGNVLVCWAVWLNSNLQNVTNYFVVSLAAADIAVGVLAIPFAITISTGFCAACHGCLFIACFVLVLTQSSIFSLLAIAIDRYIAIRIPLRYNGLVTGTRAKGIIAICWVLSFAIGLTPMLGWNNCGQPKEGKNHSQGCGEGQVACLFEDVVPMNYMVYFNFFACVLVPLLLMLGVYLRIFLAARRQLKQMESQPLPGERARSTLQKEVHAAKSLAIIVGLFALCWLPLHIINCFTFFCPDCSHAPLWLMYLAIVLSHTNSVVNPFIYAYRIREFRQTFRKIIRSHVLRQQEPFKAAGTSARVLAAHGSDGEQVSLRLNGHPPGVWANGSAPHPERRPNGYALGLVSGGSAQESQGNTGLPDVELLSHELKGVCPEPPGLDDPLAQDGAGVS

SMILES | EC50 [1] [nM] | ΔIOP (mmHg) [2, 3] [mmHg] | ΔIOP (mmHg) [2, 4] [mmHg] | ΔIOP (mmHg) [2, 5] [mmHg] | ΔIOP (mmHg) [2, 6] [mmHg] | ΔIOP (mmHg) [2, 7] [mmHg] | ΔIOP (mmHg) [2, 8] [mmHg] | other results
CC(=O)Nc1ccc(-c2nc(SCc3cccc(CCC(=O)NCCN(C)C)n3)nc(N)c2C#N)cc1.Cl [Example 61, 3-{6-[4-(4-acetylaminophenyl)-6-amino-5-cyanopyrimidin-2-ylsulfanylmethyl]pyridin-2-yl}-N-(2-dimethylaminoethyl)-propionamide hydrochloride] | 3.4 | −0.5 ± 0.4 | −4.2 ± 0.6 | −4.5 ± 0.7 | −4.8 ± 0.7 | −4.4 ± 0.7 | −1.2 ± 0.8 | –
CCN(CC)CCNC(=O)CCc1cccc(CSc2nc(N)c(C#N)c(-c3ccc(NC(C)=O)cc3)n2)n1.Cl [Example 66, 3-{6-[4-(4-acetylaminophenyl)-6-amino-5-cyanopyrimidin-2-ylsulfanylmethyl]pyridin-2-yl}-N-(2-diethylaminoethyl)propionamide hydrochloride salt] | 5.2 | −1.3 ± 0.9 | −4.0 ± 0.6 | −5.5 ± 0.7 | −5.0 ± 0.5 | −3.7 ± 0.5 | −1.8 ± 0.5 | –
CC(=O)Nc1ccc(-c2nc(SCc3cccc(CCC(=O)N4CCCN(C)CC4)n3)nc(N)c2C#N)cc1.Cl [Example 80, N-[4-(6-amino-5-cyano-2-{6-[3-(4-methyl-[1,4]diazepan-1-yl)-3-oxopropyl]pyridin-2-ylmethyl-sulfanyl}pyrimidin-4-yl)phenyl]acetamide hydrochloride] | 2.4 | −0.9 ± 1.3 | −5.0 ± 1.0 | −5.9 ± 0.7 | −4.9 ± 0.5 | −5.0 ± 0.8 | −1.8 ± 0.8 | –
CC(=O)Nc1ccc(-c2nc(SCc3cccc(CCC(=O)N(C)CC(C)N(C)C)n3)nc(N)c2C#N)cc1.Cl (centres unmarked) [Example 64, 3-{6-[4-(4-acetylaminophenyl)-6-amino-5-cyanopyrimidin-2-ylsulfanylmethyl]pyridin-2-yl}-N-(2-dimethylaminopropyl)-N-methylpropionamide hydrochloride] | 4.3 | −2.7 ± 0.7 | −4.9 ± 0.5 | −3.8 ± 0.8 | −3.2 ± 0.9 | −4.0 ± 0.7 | −1.8 ± 0.4 | –
CC(=O)Nc1ccc(-c2nc(SCc3cccc(C)n3)nc(N)c2C#N)cc1 [Example 2, N-{4-[6-amino-5-cyano-2-(6-methylpyridin-2-ylmethylsulfanyl)pyrimidin-4-yl]phenyl}acetamide] | 11.9 | – | – | – | – | – | – | ΔIOP (mmHg) ([2]; 1% suspended ophthalmic preparation, test group, 0.5 hr): 1.1 ± 0.6 mmHg; ΔIOP (mmHg) ([2]; 1% suspended ophthalmic preparation, test group, 1 hr): −3.1 ± 0.6 mmHg; ΔIOP (mmHg) ([2]; 1% suspended ophthalmic preparation, test group, 2 hr): −4.2 ± 0.7 mmHg; ΔIOP (mmHg) ([2]; 1% suspended ophthalmic preparation, test group, 3 hr): −4.0 ± 0.9 mmHg; ΔIOP (mmHg) ([2]; 1% suspended ophthalmic preparation, test group, 4 hr): −2.0 ± 0.4 mmHg; ΔIOP (mmHg) ([2]; 1% suspended ophthalmic preparation, test group, 6 hr): 0.4 ± 0.9 mmHg
CC(=O)Nc1ccc(-c2nc(SCc3cccc(CCC(=O)N4CCN(CCN5CCOCC5)CC4)n3)nc(N)c2C#N)cc1.Cl [Example 78, N-{4-[6-amino-5-cyano-2-(6-{3-[4-(2-morpholin-4-ylethyl)piperazin-1-yl]-3-oxopropyl}pyridin-2-ylmethylsulfanyl)pyrimidin-4-yl]phenyl}acetamide hydrochloride] | 6 | 0.6 ± 0.5 | −3.3 ± 0.4 | −4.4 ± 0.6 | −4.3 ± 0.9 | −5.4 ± 0.7 | −3.2 ± 0.9 | –
CC(=O)Nc1ccc(-c2nc(SCc3cccc(CN4CCOCC4)n3)nc(N)c2C#N)cc1 [Example 14, N-{4-[6-amino-5-cyano-2-(6-morpholin-4-ylmethylpyridin-2-ylmethylsulfanyl)pyrimidin-4-yl]phenyl}acetamide] | 39.6 | – | – | – | – | – | – | ΔIOP (mmHg) ([2]; 0.3% suspended ophthalmic preparation, test group, 0.5 hr): −0.3 ± 1.2 mmHg; ΔIOP (mmHg) ([2]; 0.3% suspended ophthalmic preparation, test group, 1 hr): −3.9 ± 1.3 mmHg; ΔIOP (mmHg) ([2]; 0.3% suspended ophthalmic preparation, test group, 2 hr): −4.4 ± 1.0 mmHg; ΔIOP (mmHg) ([2]; 0.3% suspended ophthalmic preparation, test group, 3 hr): −4.8 ± 1.4 mmHg; ΔIOP (mmHg) ([2]; 0.3% suspended ophthalmic preparation, test group, 4 hr): −4.3 ± 1.0 mmHg; ΔIOP (mmHg) ([2]; 0.3% suspended ophthalmic preparation, test group, 6 hr): −1.0 ± 1.0 mmHg
CCCC(=O)Nc1ccc(-c2nc(SCc3cccc(CCC(=O)N4CCN(C)CC4)n3)nc(N)c2C#N)cc1 [Example 58, N-[4-(6-amino-5-cyano-2-{6-[3-(4-methylpiperazin-1-yl)-3-oxopropyl]pyridin-2-ylmethylsulfanyl}pyrimidin-4-yl)phenyl]-butylamide] | 38 | – | – | – | – | – | – | –
CN1CCN(C(=O)CCc2cccc(CSc3nc(N)c(C#N)c(-c4ccc(N)cc4)n3)n2)CC1 [Example 56, 4-amino-6-(4-aminophenyl)-2-{6-[3-(4-methylpiperazin-1-yl)-3-oxopropyl]-pyridin-2-ylmethylsulfanyl}pyrimidin-5-carbonitrile] | 5.1 | – | – | – | – | – | – | –
CCCC(=O)Nc1ccc(-c2nc(SCc3cccc(C)n3)nc(N)c2C#N)cc1 [Example 11, N-{4-[6-amino-5-cyano-2-(6-methylpyridin-2-ylmethylsulfanyl)pyrimidin-4-yl]phenyl}butylamide] | 395 | – | – | – | – | – | – | –
COC(=O)Nc1ccc(-c2nc(SCc3cccc(C)n3)nc(N)c2C#N)cc1 [Example 13, methyl {4-[6-amino-5-cyano-2-(6-methylpyridin-2-ylmethylsulfanyl)pyrimidin-4-yl]phenyl}-carbamate] | 13.5 | – | – | – | – | – | – | –
CC(=O)Nc1ccc(-c2nc(SCc3cccc(CN4CCN(C(=O)OC(C)(C)C)CC4)n3)nc(N)c2C#N)cc1 [Example 17, t-butyl 4-{6-[4-(4-acetylaminophenyl)-6-amino-5-cyanopyrimidin-2-ylsulfanyl-methyl]-pyridin-2-ylmethyl}piperazine-1-carboxylate] | 6.8 | – | – | – | – | – | – | –
CCN(CC)C1CCN(C(=O)CCc2cccc(CSc3nc(N)c(C#N)c(-c4ccc(NC(C)=O)cc4)n3)n2)CC1 [Example 68, N-[4-(6-amino-5-cyano-2-{6-[3-(4-diethylaminopiperidin-1-yl)-3-oxopropyl]pyridin-2-yl-methylsulfanyl}pyrimidin-4-yl)phenyl]acetamide hydrochloride salt] | 7.5 | – | – | – | – | – | – | –
CC(=O)Nc1ccc(-c2nc(SCc3cccc(CNC(=O)CCCN4CCCC4)n3)nc(N)c2C#N)cc1 [Example 33, N-{6-[4-(4-acetylaminophenyl)-6-amino-5-cyanopyrimidin-2-ylsulfanylmethyl]pyridin-2-ylmethyl}-4-pyrrolidin-1-ylbutyl-amide] | 48 | – | – | – | – | – | – | –
